Experimental data taken from ChEMBL document CHEMBL2203055, “From α4β2 Nicotinic Ligands to the Discovery of σ1 Receptor Ligands: Pharmacophore Analysis and Rational Design” (ACS Med Chem Lett, 2012).

What was measured:
[1] = system: PC-12; test: Displacement of [3H]DTG from sigma 2 receptor in rat PC12 cell membrane at 10 uM after 2 hrs by microbeta scintillation counting analysis; assay type: cell membranes
[2] = target: Sigma non-opioid intracellular receptor 1 (Rattus norvegicus, UniProt Q9R0C9); test: Displacement of [3H]pentazocine from sigma 1 receptor in rat brain membrane after 2.5 hrs by microbeta scintillation counting analysis; assay type: cell membranes
[3] = target: Sigma non-opioid intracellular receptor 1 (Homo sapiens, UniProt Q99720); test: Binding affinity to sigma 1 receptor
[4] = target: Sigma non-opioid intracellular receptor 1 (Rattus norvegicus) (UniProt Q9R0C9); test: Displacement of [3H]pentazocine from sigma 1 receptor in rat brain membrane at 10 uM after 2.5 hrs by microbeta scintillation counting analysis; assay type: cell membranes
[5] = target: Neuronal acetylcholine receptor; alpha3/beta4 (Rattus norvegicus, UniProt P04757+P12392); test: Displacement of [3H]epibatidine from alpha3beta4 nAChR after 4 hrs by liquid scintillation counting analysis; assay type: protein-complex assay
[6] = target: Neuronal acetylcholine receptor; alpha4/beta4 (Rattus norvegicus, UniProt P09483+P12392); test: Displacement of [3H]epibatidine from alpha4beta4 nAChR after 4 hrs by liquid scintillation counting analysis; assay type: protein-complex assay
[7] = target: Neuronal acetylcholine receptor; alpha2/beta4 (Rattus norvegicus, UniProt P12389+P12392); test: Displacement of [3H]epibatidine from alpha2beta4 nAChR after 4 hrs by liquid scintillation counting analysis; assay type: protein-complex assay
[8] = target: T1, Neuronal acetylcholine receptor; alpha4/beta2 (Rattus norvegicus, UniProt P09483+P12390); test: Displacement of [3H]epibatidine from alpha4beta2 nAChR after 4 hrs by liquid scintillation counting analysis; assay type: protein-complex assay
[9] = target: Neuronal acetylcholine receptor; alpha3/beta2 (Rattus norvegicus, UniProt P04757+P12390); test: Displacement of [3H]epibatidine from alpha3beta2 nAChR after 4 hrs by liquid scintillation counting analysis; assay type: protein-complex assay
[10] = target: T1, Neuronal acetylcholine receptor; alpha4/beta2; test: Displacement of [3H]epibatidine from alpha4beta2* nAChR in rat forebrain after 4 hrs by liquid scintillation counting analysis
[11] = Displacement of [3H]DTG from sigma 2 receptor in rat PC12 cell membrane after 2 hrs by microbeta scintillation counting analysis; assay type: cell membranes; details: pc-12

Sequence of Sigma non-opioid intracellular receptor 1 (Rattus norvegicus, UniProt Q9R0C9) (Q9R0C9 whole entry): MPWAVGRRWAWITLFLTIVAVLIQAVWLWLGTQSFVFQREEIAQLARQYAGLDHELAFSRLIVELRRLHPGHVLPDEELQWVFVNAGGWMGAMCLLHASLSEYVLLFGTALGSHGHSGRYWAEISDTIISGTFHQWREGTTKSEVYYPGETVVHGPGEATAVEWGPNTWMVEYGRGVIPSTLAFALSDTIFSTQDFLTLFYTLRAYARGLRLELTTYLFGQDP
Sequence of Sigma non-opioid intracellular receptor 1 (Rattus norvegicus) (Q9R0C9 whole entry): as above
T1 sequence (P09483 whole entry): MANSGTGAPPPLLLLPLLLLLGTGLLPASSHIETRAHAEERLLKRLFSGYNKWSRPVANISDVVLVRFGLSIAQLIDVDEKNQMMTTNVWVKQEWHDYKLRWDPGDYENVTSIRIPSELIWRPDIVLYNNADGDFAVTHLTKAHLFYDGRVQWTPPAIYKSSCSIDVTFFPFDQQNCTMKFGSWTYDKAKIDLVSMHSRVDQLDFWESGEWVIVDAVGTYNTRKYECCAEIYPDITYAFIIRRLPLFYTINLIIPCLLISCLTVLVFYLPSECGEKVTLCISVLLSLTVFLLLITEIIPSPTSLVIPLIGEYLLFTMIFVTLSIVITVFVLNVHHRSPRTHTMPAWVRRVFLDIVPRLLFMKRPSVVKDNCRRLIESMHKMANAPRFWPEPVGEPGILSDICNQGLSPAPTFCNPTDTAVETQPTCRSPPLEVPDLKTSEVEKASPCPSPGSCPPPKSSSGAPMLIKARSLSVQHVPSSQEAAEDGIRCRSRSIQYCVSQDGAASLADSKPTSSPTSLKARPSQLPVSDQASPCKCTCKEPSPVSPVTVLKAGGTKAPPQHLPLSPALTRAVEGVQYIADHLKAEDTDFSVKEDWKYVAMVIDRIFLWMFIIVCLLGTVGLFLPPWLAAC
T1 sequence (P12390 whole entry): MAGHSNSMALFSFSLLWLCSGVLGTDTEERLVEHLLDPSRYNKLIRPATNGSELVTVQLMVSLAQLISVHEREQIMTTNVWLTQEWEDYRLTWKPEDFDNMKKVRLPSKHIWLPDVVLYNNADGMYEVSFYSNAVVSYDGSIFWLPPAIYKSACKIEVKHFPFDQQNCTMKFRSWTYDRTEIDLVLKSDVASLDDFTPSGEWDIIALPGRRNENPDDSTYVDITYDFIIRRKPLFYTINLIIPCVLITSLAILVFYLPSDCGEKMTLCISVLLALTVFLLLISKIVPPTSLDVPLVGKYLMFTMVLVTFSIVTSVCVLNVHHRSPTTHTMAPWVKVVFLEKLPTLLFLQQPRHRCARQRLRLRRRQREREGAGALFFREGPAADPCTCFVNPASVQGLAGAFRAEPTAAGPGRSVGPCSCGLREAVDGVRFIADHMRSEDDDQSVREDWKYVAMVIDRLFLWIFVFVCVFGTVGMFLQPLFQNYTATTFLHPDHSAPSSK
Sequence of Sigma non-opioid intracellular receptor 1 (Homo sapiens, UniProt Q99720) (Q99720 whole entry): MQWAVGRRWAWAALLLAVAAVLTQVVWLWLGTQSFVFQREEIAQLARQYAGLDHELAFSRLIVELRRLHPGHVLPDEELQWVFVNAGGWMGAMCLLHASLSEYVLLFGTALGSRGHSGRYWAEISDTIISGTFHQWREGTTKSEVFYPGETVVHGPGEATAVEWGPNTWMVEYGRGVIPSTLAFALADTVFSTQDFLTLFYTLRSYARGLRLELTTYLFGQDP
Sequence of Neuronal acetylcholine receptor; alpha4/beta4 (P09483 whole entry): as the sequence (P09483 whole entry) above
Sequence of Neuronal acetylcholine receptor; alpha4/beta4 (P12392 whole entry): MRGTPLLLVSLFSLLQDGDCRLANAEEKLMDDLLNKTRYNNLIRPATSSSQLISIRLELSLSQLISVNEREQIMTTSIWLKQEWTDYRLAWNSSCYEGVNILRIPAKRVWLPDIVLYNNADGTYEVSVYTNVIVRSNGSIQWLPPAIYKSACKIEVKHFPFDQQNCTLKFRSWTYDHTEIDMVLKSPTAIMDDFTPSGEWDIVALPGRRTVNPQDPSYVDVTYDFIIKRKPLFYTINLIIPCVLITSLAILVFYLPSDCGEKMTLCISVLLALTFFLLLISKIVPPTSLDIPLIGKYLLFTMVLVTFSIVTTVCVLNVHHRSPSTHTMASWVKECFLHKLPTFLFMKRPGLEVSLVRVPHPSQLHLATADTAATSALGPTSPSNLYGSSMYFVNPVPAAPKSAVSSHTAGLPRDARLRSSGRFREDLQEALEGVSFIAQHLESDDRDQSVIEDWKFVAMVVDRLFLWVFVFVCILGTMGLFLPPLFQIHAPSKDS
Sequence of Neuronal acetylcholine receptor; alpha2/beta4 (P12389 whole entry): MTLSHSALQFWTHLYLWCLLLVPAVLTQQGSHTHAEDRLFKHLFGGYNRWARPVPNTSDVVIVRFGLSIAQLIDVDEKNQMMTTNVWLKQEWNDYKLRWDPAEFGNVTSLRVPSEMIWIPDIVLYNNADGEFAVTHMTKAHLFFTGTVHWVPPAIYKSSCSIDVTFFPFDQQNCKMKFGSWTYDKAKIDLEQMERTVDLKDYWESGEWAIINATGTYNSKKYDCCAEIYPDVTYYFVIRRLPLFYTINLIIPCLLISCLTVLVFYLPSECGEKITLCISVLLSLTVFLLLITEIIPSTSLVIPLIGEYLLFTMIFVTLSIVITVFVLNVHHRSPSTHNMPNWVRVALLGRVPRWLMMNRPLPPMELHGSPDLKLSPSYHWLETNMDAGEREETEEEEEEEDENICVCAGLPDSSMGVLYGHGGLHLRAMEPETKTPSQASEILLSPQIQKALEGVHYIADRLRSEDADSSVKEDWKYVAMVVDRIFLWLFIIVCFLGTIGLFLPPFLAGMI
Sequence of Neuronal acetylcholine receptor; alpha2/beta4 (P12392 whole entry): as the sequence (P12392 whole entry) above
Sequence of Neuronal acetylcholine receptor; alpha3/beta2 (P04757 whole entry): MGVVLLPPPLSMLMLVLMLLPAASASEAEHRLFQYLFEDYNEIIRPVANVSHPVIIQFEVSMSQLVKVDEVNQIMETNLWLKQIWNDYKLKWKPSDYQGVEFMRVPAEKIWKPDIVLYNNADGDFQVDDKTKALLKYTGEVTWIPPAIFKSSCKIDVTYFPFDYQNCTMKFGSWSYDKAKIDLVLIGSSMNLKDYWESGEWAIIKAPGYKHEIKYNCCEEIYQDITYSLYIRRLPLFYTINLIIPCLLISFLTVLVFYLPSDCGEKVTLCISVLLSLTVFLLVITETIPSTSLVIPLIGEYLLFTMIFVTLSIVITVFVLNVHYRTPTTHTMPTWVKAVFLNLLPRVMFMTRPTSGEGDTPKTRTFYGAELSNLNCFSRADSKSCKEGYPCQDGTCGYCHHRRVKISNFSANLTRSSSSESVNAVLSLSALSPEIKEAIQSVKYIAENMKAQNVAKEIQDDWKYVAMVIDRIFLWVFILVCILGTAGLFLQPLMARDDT
Sequence of Neuronal acetylcholine receptor; alpha3/beta2 (P12390 whole entry): as the sequence (P12390 whole entry) above
Sequence of Neuronal acetylcholine receptor; alpha3/beta4 (P04757 whole entry): as the sequence (P04757 whole entry) above
Sequence of Neuronal acetylcholine receptor; alpha3/beta4 (P12392 whole entry): as the sequence (P12392 whole entry) above

SMILES | Activity [1] [%] | Ki [2] [nM] | Activity [4] [%] | further results
c1ccc(OCc2cc(OC[C@@H]3CCCN3)on2)cc1 | < 50 | 4.2 | – | –
COC(=O)[C@@]1(c2ccccc2)C[C@H]1CN(C)C12CC3CC(CC(C3)C1)C2 | – | – | – | Ki [3]: 2.1 nM
Cc1cc(OC[C@@H]2CCN2)no1 | < 50 | – | < 50 | –
Clc1cncc(OCc2cc(OC[C@@H]3CCN3)no2)c1 | < 50 | 103 | – | Ki [5]: 6.1 µM; Ki [6]: 5.58 µM; Ki [7]: 1820 nM; Ki [8]: 2220 nM; Ki [9]: > 10 µM; Ki [10]: > 10 µM
Cc1cc(OC[C@@H]2CCN2)on1 | < 50 | – | < 50 | –
OCc1cc(OC[C@@H]2CCN2)on1 | < 50 | – | < 50 | –
COCc1cc(OC[C@@H]2CCN2)no1 | < 50 | – | < 50 | –
c1ccc(OCc2cc(OC[C@@H]3CCN3)on2)cc1 | < 50 | 328 | – | –
c1c(OC[C@@H]2CCN2)noc1COCC1CC1 | – | – | < 50 | Ki [11]: 369 nM
